pEC50: −log10 of the molar value. Entries after “also recorded” stand apart in the source; their conditions may differ.
Tests used:
[1] = stability in mouse serum at 37° C. (FI-MSn); format: in vitro ADME; settings: for degradation in mouse serum: mouse serum at 37° C.
Text: Chemical stability of the glycopeptides in vivo plays an important role in the deliverability of the drugs to the site(s) of action within the brain. It is also important to know what the chemical or metabolic instabilities are in order to inform the drug design process. […] Data were fitted using a single exponential decay model (R^2>0.71, in all cases).
The overall process was as follows: Flow-injection tandem mass spectrometry (FI-MS^n) was used to observe the degradation of the peptides and glycopeptides with a Thermo LCQ with electrospray ionization (ESI). The technique involved injection of a sample bolus of material in mouse serum via a six port valve with fluid flow delivered via a syringe pump, and subsequent electrospray ionization (ESI) followed by mass spectral analysis. Samples were diluted to a concentration of ˜5 μM of each PACAP analogue, and were incubated at 37° C. for times varying from 1 to 60 minutes. After samples had been incubated for the prescribed amount of time they were prepared for mass spectrometry analysis by withdrawing 10 microliters of solution and spiking with 1 microliter of a 10 μM solution of peptide internal standard (angiotensin II) in 50% acetic acid and subjecting them to a standard C18 zip tip desalting. These solutions, once eluted from the zip tip were diluted to 100 μL in 50:50 acetonitrile/water with 0.1% formic acid. Tandem mass spectrometry analysis (MS^3) was conducted to yield specific, quantitative signals proportional to the amount of PACAP analogue at each time point. This technique was also used with microdiasylate samples from a mouse after i.p. administration of PACAP1-27-S-G.

VPAC1 = target: T1, VPAC1 (Homo sapiens, UniProt P32241); assay: VPAC1 agonist data (Table 2); format: cell-based
T1 sequence (P32241 31-457): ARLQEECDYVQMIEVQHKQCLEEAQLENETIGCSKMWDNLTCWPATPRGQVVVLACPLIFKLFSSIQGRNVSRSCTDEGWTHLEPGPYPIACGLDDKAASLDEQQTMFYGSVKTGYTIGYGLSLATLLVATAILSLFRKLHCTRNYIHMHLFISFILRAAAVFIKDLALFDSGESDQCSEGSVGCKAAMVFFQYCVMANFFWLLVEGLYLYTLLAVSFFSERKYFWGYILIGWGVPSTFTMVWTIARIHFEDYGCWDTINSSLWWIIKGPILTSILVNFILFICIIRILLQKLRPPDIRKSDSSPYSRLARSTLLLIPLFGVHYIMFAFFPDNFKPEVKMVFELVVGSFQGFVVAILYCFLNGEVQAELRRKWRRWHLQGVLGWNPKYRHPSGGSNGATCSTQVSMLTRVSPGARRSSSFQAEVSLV

PAC1 = target: T2, PAC1 (Homo sapiens, UniProt P41586); assay: PAC1 agonist data (Table 2); format: cell-based; parameters: host or cells: CHO (clonal line PAC1-CHO)
T2 sequence (P41586 21-468): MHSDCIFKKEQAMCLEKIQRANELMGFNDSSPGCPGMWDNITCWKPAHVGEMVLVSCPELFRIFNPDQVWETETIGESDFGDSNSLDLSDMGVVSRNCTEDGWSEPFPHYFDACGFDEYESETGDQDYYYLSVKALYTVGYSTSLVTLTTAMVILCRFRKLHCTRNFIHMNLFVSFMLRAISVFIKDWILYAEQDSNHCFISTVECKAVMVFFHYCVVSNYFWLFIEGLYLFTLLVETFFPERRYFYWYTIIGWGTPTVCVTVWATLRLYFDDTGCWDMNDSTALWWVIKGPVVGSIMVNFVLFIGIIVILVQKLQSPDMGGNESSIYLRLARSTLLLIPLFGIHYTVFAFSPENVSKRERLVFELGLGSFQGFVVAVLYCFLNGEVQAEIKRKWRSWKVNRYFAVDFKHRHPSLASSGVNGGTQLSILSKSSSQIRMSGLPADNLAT
Protocol: A custom DNA clone of the human PAC1 gene with 3 hemagglutinin (HA) tags inserted 3′ to the signal peptide sequence (to avoid proteolytic loss) was obtained from Genecopoeia (Rockville, MD). The construct was electroporated into Chinese Hamster Ovary (CHO) cells, and selected for with 500 μg/mL of G418. The resulting population was screened for high expressing clones, and one such clone selected for further analysis. […] This cell line was used for all molecular pharmacology experiments. The cells were maintained in DMEM/F12 with 10% heat-inactivated FBS, 1× penicillin/streptomycin, and 500 μg/mL G418, at 37° C. and 5% CO2.
All molecular pharmacology experiments were carried out using a FLIPR Tetra from Molecular Devices (Sunnyvale, CA), set to image calcium flux using the manufacturer's recommended settings and protocols. The day before an experiment, the PAC1-CHO cells were split into 384 well black walled, clear bottom microplates, 10,000 cells per well. The cells were recovered overnight in growth medium (as above). The next day, the growth medium was replaced with Calcium 6 dye (Molecular Devices) using the manufacturer recommended buffer with 2.5 mM probenecid. The cells were incubated for 2 hours in the culture incubator, and removed during the last 15 minutes to allow equilibration to room temperature. Compound as indicated below was added to the cells using a 384 tip block, with real time monitoring before, during, and 15 minutes after compound addition. The resulting calcium flux was recorded, and the maximum-minimum response over the entire observation time calculated and reported as the mean±SEM (4 wells per point).
For agonist mode experiments, compound was added in an 11 point concentration curve, with a vehicle control (buffer). […] The response was analyzed using a 3 variable non-linear curve fit, and the EC50 (nM) and EMax (%) calculated and reported (Prism, GraphPad, La Jolla, CA).

[2] = system: traumatic brain injury (TBI); assay: mouse model of diffuse TBI (midline fluid percussion injury); format: in vivo
Protocol: Lead compound 2LS80Mel was evaluated for its neuroprotective potential in vivo utilizing a mouse model of traumatic brain injury (TBI). Mice were pretreated with either a single dose of 2LS80Mel (10 mg/kg i.p.) or sterile saline 30 min prior to being subjected to a midline fluid percussion injury. The mice were then evaluated for sleep-wake behavior (FIGS. 8A-C), motor skills and cognition, (FIGS. 8D-F), the presence of inflammatory markers, (FIGS. 8G-L), and microglial morphology (FIGS. 8M-O).

VPAC2 = target: T3, VPAC2 (Homo sapiens, UniProt P41587); assay: VPAC2 agonist data (Table 2); format: cell-based
T3 sequence (P41587 24-438): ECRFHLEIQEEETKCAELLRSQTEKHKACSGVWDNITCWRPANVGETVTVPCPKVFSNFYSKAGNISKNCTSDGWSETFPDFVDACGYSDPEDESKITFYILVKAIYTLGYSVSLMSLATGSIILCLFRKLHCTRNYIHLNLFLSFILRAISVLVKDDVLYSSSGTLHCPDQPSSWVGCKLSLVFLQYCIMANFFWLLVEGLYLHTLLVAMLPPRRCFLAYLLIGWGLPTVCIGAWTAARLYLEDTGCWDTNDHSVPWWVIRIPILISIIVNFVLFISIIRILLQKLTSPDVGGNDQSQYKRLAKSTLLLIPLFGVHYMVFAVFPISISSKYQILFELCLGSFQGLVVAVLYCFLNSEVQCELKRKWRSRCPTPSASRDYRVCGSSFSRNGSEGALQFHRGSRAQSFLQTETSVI

[3] = 10 mg/kg i.p. 30 min prior to TBI

SMILES | degradation in mouse serum [1] | pEC50 (VPAC1) | Emax (VPAC1) | pEC50 (PAC1) | Emax (PAC1) | cumulative minutes slept in the first 6 h post-injury [2, 3] | sleep in the first dark period [2, 3] | CD11b+Ly6Chigh and CD11b+CD115+Ly6Chigh monocyte populations ([2]; 10 mg/kg i.p. prior to TBI) | sensorimotor deficits, modified NSS ([2]; 10 mg/kg i.p. prior to TBI) | Rotarod latency to fall ([2]; 10 mg/kg i.p. prior to TBI, 2, 5, 7 DPI) | levels of select inflammatory cytokines ([2]; 2LS80Mel-treated vs saline-treated) | microglial morphology ([2]; 2LS80Mel-treated vs saline-treated, 15 DPI) | behavioral, neurological, and motor skill deficits ([2]; overall, FIG. 8) | pEC50 (VPAC2) | Emax (VPAC2) | mouse serum t1/2 in vitro ([1]; compared to native / non-glycosylated peptide)
CC[C@H](C)[C@H](NC(=O)CNC(=O)[C@H](CC(=O)O)NC(=O)[C@H](CO)NC(=O)[C@@H](N)Cc1cnc[nH]1)C(=O)N[C@@H](Cc1ccccc1)C(=O)N[C@H](C(=O)N[C@@H](CC(=O)O)C(=O)N[C@@H](CO)C(=O)N[C@@H](Cc1ccc(O)cc1)C(=O)N[C@@H](CO)C(=O)N[C@@H](CCCNC(=N)N)C(=O)N[C@@H](Cc1ccc(O)cc1)C(=O)N[C@@H](CCCNC(=N)N)C(=O)N[C@@H](CCCCN)C(=O)N[C@@H](CCC(N)=O)C(=O)N[C@@H](CCSC)C(=O)N[C@@H](C)C(=O)N[C@H](C(=O)N[C@@H](CCCCN)C(=O)N[C@@H](CCCCN)C(=O)N[C@@H](Cc1ccc(O)cc1)C(=O)N[C@@H](CC(C)C)C(=O)N[C@@H](C)C(=O)N[C@@H](C)C(=O)N[C@H](C(=O)N[C@@H](CC(C)C)C(N)=O)C(C)C)C(C)C)[C@@H](C)O [PACAP1-27, PACAP-27, reference compound] | degraded over 30 min |  |  |  |  |  |  |  |  |  |  |  |  |  |  | 
CC[C@H](C)[C@H](NC(=O)CNC(=O)[C@H](CC(=O)O)NC(=O)[C@H](CO)NC(=O)[C@@H](N)Cc1c[nH]cn1)C(=O)N[C@@H](Cc1ccccc1)C(=O)N[C@H](C(=O)N[C@@H](CC(=O)O)C(=O)N[C@@H](CO)C(=O)N[C@@H](Cc1ccc(O)cc1)C(=O)N[C@@H](CO)C(=O)N[C@@H](CCCNC(=N)N)C(=O)N[C@@H](Cc1ccc(O)cc1)C(=O)N[C@@H](CCCNC(=N)N)C(=O)N[C@@H](CCCCN)C(=O)N[C@@H](CCC(N)=O)C(=O)N[C@@H](CC(C)C)C(=O)N[C@@H](C)C(=O)N[C@H](C(=O)N[C@@H](CCCCN)C(=O)N[C@@H](CCCCN)C(=O)N[C@@H](Cc1ccc(O)cc1)C(=O)N[C@@H](CC(C)C)C(=O)N[C@@H](C)C(=O)N[C@@H](C)C(=O)N[C@H](C(=O)N[C@@H](CC(C)C)C(=O)N[C@@H](CO[C@@H]1O[C@H](CO[C@H]2O[C@H](CO)[C@H](O)[C@H](O)[C@H]2O)[C@@H](O)[C@H](O)[C@H]1O)C(N)=O)C(C)C)C(C)C)[C@@H](C)O [Compound 2LS80Mel] |  | 9.26 | 102% | 9.24 | 99% | slept comparable minutes to uninjured sham animals | prevented this injury-induced increase in sleep | not seen; also recorded: prevented increases in peripheral monocyte populations | prevented | comparable to uninjured shams at all time points post-injury | no significant differences | no significant differences | attenuated behavioral, neurological, and motor skill deficits | 8.03 | 86% | 
CC[C@H](C)[C@H](NC(=O)CNC(=O)[C@H](CC(=O)O)NC(=O)[C@H](CO)NC(=O)[C@@H](N)Cc1c[nH]cn1)C(=O)N[C@@H](Cc1ccccc1)C(=O)N[C@H](C(=O)N[C@@H](CC(=O)O)C(=O)N[C@@H](CO)C(=O)N[C@@H](Cc1ccc(O)cc1)C(=O)N[C@@H](CO)C(=O)N[C@@H](CCCNC(=N)N)C(=O)N[C@@H](Cc1ccc(O)cc1)C(=O)N[C@@H](CCCNC(=N)N)C(=O)N[C@@H](CCCCN)C(=O)N[C@@H](CCC(N)=O)C(=O)N[C@@H](CCSC)C(=O)N[C@@H](C)C(=O)N[C@H](C(=O)N[C@@H](CCCCN)C(=O)N[C@@H](CCCCN)C(=O)N[C@@H](Cc1ccc(O)cc1)C(=O)N[C@@H](CC(C)C)C(=O)N[C@@H](C)C(=O)N[C@@H](C)C(=O)N[C@H](C(=O)N[C@@H](CC(C)C)C(=O)N[C@@H](CO[C@@H]1O[C@H](CO)[C@@H](O)[C@H](O)[C@H]1O)C(N)=O)C(C)C)C(C)C)[C@@H](C)O [PACAP1-27-S-G] | degraded over 30 min |  |  |  |  |  |  |  |  |  |  |  |  |  |  | significant increase
